Experimental data: patent US8703749B2, “Compositions and methods for treating Friedreich's Ataxia” (priority 2009, dated 2014)
Where a SMILES comes first, the peptide text is derived from it. The star is where a group is joined. Cbz = O=C(OCc1ccccc1)*

Legend:
frataxin [1] = target: T1, frataxin (Homo sapiens, UniProt Q16595); experiment: Frataxin accumulation in HEK-293 Flp-In cells stably expressing frataxin 1-210 (WB, FACS); type: cell-based; design: HEK-293 Flp-In cells stably transfected with frataxin^1-210; expressed in transfected cells; conditions: HEK-293 Flp-In frataxin 1-210
T1 sequence (Q16595 42-210): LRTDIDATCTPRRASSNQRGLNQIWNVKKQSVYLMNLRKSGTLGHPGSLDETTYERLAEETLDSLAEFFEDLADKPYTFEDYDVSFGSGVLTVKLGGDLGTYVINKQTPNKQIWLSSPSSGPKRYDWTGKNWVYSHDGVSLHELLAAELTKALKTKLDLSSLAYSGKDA
Procedure: Human embryonic kidney HEK-293 cells and Hela cells were maintained in DMEM supplemented with 10% FBS. HEK-293 were transfected with the calcium/phosphate precipitation method, using 20 μg total DNA (10 μg pIRES-frataxin and 10 μg HA-Ub, or corresponding empty vectors) on 10 cm dishes. Hela cells were transfected using Lipofectamine 2000 reagents (Invitrogen), according to manufacturer's instructions. Where indicated, the day after transfection, cells were treated for 16 h with 10 μM proteasome inhibitors, MG132 or Lactacystin, or 50 ng/ml DUB inhibitor Ubiquitin-Aldehyde. Flp-In-HEK-293 cells (Invitrogen) are HEK-293 variants allowing the stable and isogenic integration and expression of a transfected gene. Flp-In-HEK-293 cells were maintained in DMEM supplemented with 10% FBS and transfected with the calcium/phosphate precipitation method. Briefly, cells were plated on 10 cm dishes and transfected with 10 μg total DNA. The HEK-293 clone stably expressing frataxin^1-210 was previously described (4). The HEK-293 clone stably expressing frataxin^K147R was obtained from cultures in selection medium containing 100 μg/ml hygromycin B (Invitrogen). FRDA lymphoblasts GM15850, GM16798 and […], as well control lymphoblasts GM15851, GM16241 and GM16215, were maintained in RPMI supplemented with 15% FBS. Treatments with specific ubiquitin-competing molecules were performed in 20% FBS containing medium. FRDA fibroblasts GM03816 were maintained in DMEM supplemented with 15% FBS.
(§1) Cell extracts were prepared in modified RIPA buffer (10 mM sodium phosphate pH7.2, 150 mM NaCl, 1% Na deoxycholate, 0.1% SDS, 1% Np40, 2 mM EDTA) or IP buffer (50 mM Tris-HCl, pH 7.5, 150 mM NaCl, 1% Nonidet P-40, 5 mM EDTA, 5 mM EGTA) supplemented with Complete protease inhibitor cocktail and 2 mM N-Ethylmaleimide (NEM). For immunoblotting, 100 μg of protein extract were separated on 12% SDS-PAGE, blotted onto nitrocellulose membrane and detected with specific antibodies. For in vivo detection of ubiquitin-conjugates […] and 50 ng/ml Ubiquitin-Aldehyde were added to the lysis buffer. For immunoprecipitation, 5 mg of total protein extract prepared as above were incubated for 1-2 h at 4° C. with specific antibodies, previously conjugated to Protein G-sepharose (GE Healthcare). Immunocomplexes were then resolved and analysed by SDS-PAGE. […] Densitometric analysis was performed using ImageJ software.
Cells were collected after the indicated treatments and fixed for 20 minutes in 4% paraformaldehyde at room temperature. Cells were then permeabilized and blocked in a blocking solution (3% FBS in PBS) containing 0.2% Triton, for 1 hour at room temperature. Cells were then incubated overnight at 4° C. with anti-frataxin monoclonal antibody (MAB-10485, Immunological Science) or anti-Bcl2 monoclonal antibody (sc-509, Santa Cruz) diluted 1:200 in blocking solution. Cells were then washed 3 times in PBS and incubated for 1 hour at room temperature with FITC-conjugated goat anti-mouse IgG/IgM (BD Bioscience Pharmingen) diluted 1:200 in blocking solution. After washing 3 times with PBS cells were analyzed by flow cytometry (Becton Dickinson).
HEK-293 Flp-In cells stably transfected with frataxin^1-210 were treated for the indicated times with 10 μM MG132. Total cell extracts were blotted as in A. One representative experiment out of four performed with similar results is shown in FIG. 18.
Formula III induces frataxin precursor accumulation. HEK-293 Flp-In cells stably expressing frataxin^1-210 were treated for the indicated days with 20 μM of Formula III or 10 μM MG132. Total cell extracts were resolved on SDS-PAGE and analyzed with anti-frataxin antibody, or anti-tubulin, as a loading control.
Formula III induces mature frataxin accumulation. HEK-293 Flp-In cells stably expressing frataxin^1-210 were treated and analyzed as in B. One representative experiment out of three performed with similar results is shown FIG. 5C. […]

frataxin precursor = experiment: Cycloheximide chase of frataxin precursor degradation in HEK-293 Flp-In cells; type: cell-based, human; conditions: 100 μg/ml cycloheximide, 10 μM MG132
Procedure: as §1
HEK-293 Flp-In cells stably transfected with frataxin^1-210 (FIG. 1E) or empty vector (FIG. 1G) were treated for the indicated times with 100 μg/ml cycloheximide (CHX) in the presence or absence of 10 μM MG132 (MG). […] One representative experiment out of five performed with similar results is shown. Pre: precursor, tub: tubulin.

frataxin [2] = experiment: Frataxin precursor accumulation in HeLa cells transiently transfected with frataxin 1-210 (immunoblot); type: cell-based, human; conditions: 10 μM proteasome inhibitor, 18 h
Procedure: Human embryonic kidney HEK-293 cells and Hela cells were maintained in DMEM supplemented with 10% FBS. HEK-293 were transfected with the calcium/phosphate precipitation method, using 20 μg total DNA (10 μg pIRES-frataxin and 10 μg HA-Ub, or corresponding empty vectors) on 10 cm dishes. Hela cells were transfected using Lipofectamine 2000 reagents (Invitrogen), according to manufacturer's instructions. […] Flp-In-HEK-293 cells (Invitrogen) are HEK-293 variants allowing the stable and isogenic integration and expression of a transfected gene. Flp-In-HEK-293 cells were maintained in DMEM supplemented with 10% FBS and transfected with the calcium/phosphate precipitation method. Briefly, cells were plated on 10 cm dishes and transfected with 10 μg total DNA. The HEK-293 clone stably expressing frataxin^1-210 was previously described (4). […]
(§2) Cell extracts were prepared in modified RIPA buffer (10 mM sodium phosphate pH7.2, 150 mM NaCl, 1% Na deoxycholate, 0.1% SDS, 1% Np40, 2 mM EDTA) or IP buffer (50 mM Tris-HCl, pH 7.5, 150 mM NaCl, 1% Nonidet P-40, 5 mM EDTA, 5 mM EGTA) supplemented with Complete protease inhibitor cocktail and 2 mM N-Ethylmaleimide (NEM). For immunoblotting, 100 μg of protein extract were separated on 12% SDS-PAGE, blotted onto nitrocellulose membrane and detected with specific antibodies. […] Immunocomplexes were then resolved and analysed by SDS-PAGE. […]

frataxin [3] = target: T1, frataxin; experiment: Frataxin ubiquitination in HEK-293 cells co-transfected with HA-Ub and frataxin 1-210 (IP/WB); type: cell-based; design: HEK-293 cells transiently transfected with frataxin^1-210 and HA-tagged ubiquitin (HA-Ub); expressed in transfected cells; host or cells: HEK-293
Procedure: (§3) Human embryonic kidney HEK-293 cells and Hela cells were maintained in DMEM supplemented with 10% FBS. HEK-293 were transfected with the calcium/phosphate precipitation method, using 20 μg total DNA (10 μg pIRES-frataxin and 10 μg HA-Ub, or corresponding empty vectors) on 10 cm dishes. Hela cells were transfected using Lipofectamine 2000 reagents (Invitrogen), according to manufacturer's instructions. Where indicated, the day after transfection, cells were treated for 16 h with 10 μM proteasome inhibitors, MG132 or Lactacystin, or 50 ng/ml DUB inhibitor Ubiquitin-Aldehyde. Flp-In-HEK-293 cells (Invitrogen) are HEK-293 variants allowing the stable and isogenic integration and expression of a transfected gene. Flp-In-HEK-293 cells were maintained in DMEM supplemented with 10% FBS and transfected with the calcium/phosphate precipitation method. Briefly, cells were plated on 10 cm dishes and transfected with 10 μg total DNA. The HEK-293 clone stably expressing frataxin^1-210 was previously described (4). […]
as §2
FIG. 2A illustrates HEK-293 cells transiently transfected with frataxin^1-210 and HA-tagged ubiquitin (HA-Ub) (where indicated) were treated with 10 μM MG132 (MG) for 16 h. […] Total cell extracts (lanes 1-4) or anti-HA immunoprecipitates (lanes 5-8) were analyzed by WB with anti-frataxin antibody. […]
Formula III prevents frataxin ubiquitination. […] Total cell extracts (upper panel) or anti-HA immunoprecipitated proteins (lower panel) were detected with anti-frataxin antibody.

FRDA cells = experiment: Tolerability by FRDA cells; type: cell-based, human; conditions: among the different ubiquitin-competing molecules
frataxin [4] = target: T1, frataxin; experiment: Frataxin accumulation in FRDA lymphoblasts (FACS, SDS-PAGE/western blot); type: cell-based; conditions: FRDA lymphoblasts GM15850; 50 μM; 6 days
Procedure: as §3, §2
Cells were collected after the indicated treatments and fixed for 20 minutes in 4% paraformaldehyde at room temperature. […] After washing 3 times with PBS cells were analyzed by flow cytometry (Becton Dickinson).
FRDA lymphoblasts GM15850 were cultured for 6 days in the presence of 50 μM Formula IV or Formula VI. Cells were then fixed, stained with anti-frataxin antibody or anti-Bcl2, as a control, and analyzed by flow cytometry. […]

**Q.** With `CC(C)C[C@@H](C=O)NC(=O)[C@H](CC(C)C)NC(=O)[C@H](CC(C)C)NC(=O)OCc1ccccc1` [MG132] (Cbz-Leu-Leu-Leu-aldehyde) as the compound, how does the “accumulation of mature frataxin” value (frataxin [1]; 10 μM MG132, after 24 hrs) read?
**A.** ~2.5 fold

**Q.** And the “accumulation of the frataxin precursor” value (frataxin [1]; 10 μM MG132, after 24 hrs)?
**A.** > 15 fold

**Q.** What about the “degradation of the endogenous frataxin precursor” value (frataxin precursor; HEK-293 Flp-In empty vector) of the same compound?
**A.** prevents the degradation

**Q.** What about the “time-dependent degradation of the frataxin precursor” value (frataxin precursor; HEK-293 Flp-In frataxin 1-210) of the same compound?
**A.** blocked

**Q.** What about the “accumulation of frataxin precursor compared to untreated cells” value (frataxin [2]) of the same compound?
**A.** significantly higher amounts of precursor

**Q.** And the “accumulation of mono-ubiquitinated frataxin” value (frataxin [3]; HEK-293 co-transfected with frataxin 1-210 and HA-Ub, 10 μM MG132, 16 h)?
**A.** allows the accumulation and detection of mono-ubiquitinated frataxin

**Q.** And the “accumulation of poly-ubiquitinated frataxin” value (frataxin [3]; HEK-293 co-transfected with frataxin 1-210 and HA-Ub, 10 μM MG132, 16 h, frataxin IP, anti-Ub WB)?
**A.** allows the accumulation and detection also of poly-ubiquitinated frataxin

**Q.** Which “tolerability by FRDA cells” value (FRDA cells) does the source give for `O=[N+]([O-])c1cccc(/C=N/NS(=O)(=O)c2ccc(F)cc2)c1O` [Formula VI] here?
**A.** best tolerated

**Q.** What about the “frataxin accumulation by WB and FACS analysis” value (frataxin [1]; 100 μM, 18 hours) of the same compound?
**A.** effective in inducing frataxin accumulation

**Q.** And the “frataxin accumulation by FACS analysis” value (frataxin [4])?
**A.** discrete frataxin accumulation detectable in all cells

**Q.** What does the source list for `O=[N+]([O-])c1cc(/C=N/NS(=O)(=O)c2ccc(F)cc2)c(O)c([N+](=O)[O-])c1` [Formula III]?
**A.** accumulation of the frataxin precursor (frataxin [1]; 20 μM, days, WB): substantial accumulation; accumulation of mature frataxin (frataxin [1]; 20 μM, over a longer time period, WB): substantial accumulation; ubiquitination of frataxin 1-210 (frataxin [3]; HEK-293 co-transfected with HA-Ub and frataxin 1-210, 20 μM and 50 μM, revealed after 48 h): efficiently prevents the ubiquitination

**Q.** Which “accumulation of frataxin precursor compared to untreated cells” value (frataxin [2]) does the source give for `CC(=O)N[C@@H](CSC(=O)[C@]1([C@@H](O)C(C)C)NC(=O)[C@H](C)[C@@H]1O)C(=O)O` [lactacystin] here?
**A.** significantly higher amounts of precursor
